14 molecules from US20170291890A1 (Epizyme, Inc., priority 2014, published 2017) can be followed below.

In this test the target is T1, KDM5A (Homo sapiens, UniProt P29375).
T1 construct: C-terminal FLAG-tagged KDM5A^1-1090 was purchased from BPS Biosciences; FLAG (C); purchased BPS Biosciences
T1 sequence (P29375 1-1090): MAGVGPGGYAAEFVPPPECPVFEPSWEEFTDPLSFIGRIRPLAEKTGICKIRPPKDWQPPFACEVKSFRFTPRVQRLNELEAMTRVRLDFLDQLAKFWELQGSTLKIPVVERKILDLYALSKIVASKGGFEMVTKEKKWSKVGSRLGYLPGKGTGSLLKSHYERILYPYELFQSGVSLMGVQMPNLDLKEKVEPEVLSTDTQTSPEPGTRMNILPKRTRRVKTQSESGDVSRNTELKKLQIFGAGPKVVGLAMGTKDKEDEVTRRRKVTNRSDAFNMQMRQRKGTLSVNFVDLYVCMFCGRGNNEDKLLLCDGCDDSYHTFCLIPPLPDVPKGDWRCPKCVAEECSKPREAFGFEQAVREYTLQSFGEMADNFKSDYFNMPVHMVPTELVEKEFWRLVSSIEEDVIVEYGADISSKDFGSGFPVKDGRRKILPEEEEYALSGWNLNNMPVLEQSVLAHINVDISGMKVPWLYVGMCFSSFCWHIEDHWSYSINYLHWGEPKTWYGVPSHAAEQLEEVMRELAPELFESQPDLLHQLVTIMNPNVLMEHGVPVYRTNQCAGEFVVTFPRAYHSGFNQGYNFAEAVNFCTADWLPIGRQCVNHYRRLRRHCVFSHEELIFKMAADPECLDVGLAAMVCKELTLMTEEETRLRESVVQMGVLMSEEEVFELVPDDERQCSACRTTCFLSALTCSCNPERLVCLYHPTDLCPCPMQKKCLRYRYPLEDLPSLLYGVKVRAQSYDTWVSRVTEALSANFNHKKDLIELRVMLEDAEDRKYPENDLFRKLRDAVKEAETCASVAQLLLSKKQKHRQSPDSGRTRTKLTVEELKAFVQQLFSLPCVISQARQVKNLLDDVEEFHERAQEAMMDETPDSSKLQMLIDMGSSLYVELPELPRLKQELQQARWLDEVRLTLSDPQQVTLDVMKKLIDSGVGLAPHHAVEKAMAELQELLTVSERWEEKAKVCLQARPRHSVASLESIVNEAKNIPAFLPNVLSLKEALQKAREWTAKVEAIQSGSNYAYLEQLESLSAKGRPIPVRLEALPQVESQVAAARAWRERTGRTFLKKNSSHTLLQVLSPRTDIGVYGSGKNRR
Kind of test: KDM5A Assay (SAMDI mass spectrometry demethylase assay). Format: biochemical. The note with it: C-terminal FLAG-tagged KDM5A 1-1090; class symbols; read-out: 5A IC50. The method in brief:
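FLAG-tagged KDM5A 1-1090 (20 nM) preincubated 30 min with compound in pH 8.0 HEPES buffer with ascorbate, Fe(II), TCEP, then reacted 150 min at 25 °C with H3K4me3 peptide (250 nM) and 2-oxoglutarate (15 μM). Formic acid-quenched; SAMDI-MS substrate/product AUC conversion; IC50 from dose-response.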
Regarding `Cc1cc(Nc2cnccc2C(=O)O)n(C2CCOCC2)n1` [Compound 78, 3-((3-methyl-1-(tetrahydro-2H-pyran-4-yl)-1H-pyrazol-5-yl)amino) isonicotinic acid], the IC50 (in general, the midpoint of a concentration-inhibition curve) is 1000 to 10000 nM.

As for `Cc1c(Nc2cnccc2C(=O)O)cnn1[C@H]1CC[C@@H](N)CC1` [Compound 79, 3-((1-((cis)-4-aminocyclohexyl)-5-methyl-1H-pyrazol-4-yl)amino)isonicotinic acid], the half-maximal inhibitory concentration (IC50) is 1000 to 10000 nM.

For `Cc1c(Nc2cnccc2C(=O)O)cnn1C1CCN(C2CCC2)CC1` [Compound 96], the IC50 is 1000 to 10000 nM.

For the molecule `Cc1nn(C2CCN(C(=O)c3ccccc3)CC2)cc1Nc1cnccc1C(=O)O` [Compound 97, 3-(1-(1-benzoylpiperidin-4-yl)-3-methyl-1H-pyrazol-4-ylamino) isonicotinic acid], the IC50 was 100 to 1000 nM.

`Cc1c(Nc2cnccc2C(=O)O)cnn1C1CCN(C(=O)c2ccccc2)CC1` [Compound 98, 3-(1-(1-benzoylpiperidin-4-yl)-5-methyl-1H-pyrazol-4-ylamino) isonicotinic acid]: the IC50 fell in the range of 1000 to 10000 nM.

For `Cc1nn(C2CCN(CC(F)(F)F)CC2)cc1Nc1cnccc1C(=O)O` [Compound 99, 3-(3-methyl-1-(1-(2,2,2-trifluoroethyl)piperidin-4-yl)-1H-pyrazol-4-ylamino)isonicotinic acid], the IC50 lay in the range of 100 to 1000 nM.

Regarding `Cc1c(Nc2cnccc2C(=O)O)cnn1C1CCN(CC(F)(F)F)CC1` [Compound 100, 3-(5-methyl-1-(1-(2,2,2-tri-fluoro-ethyl)piperidin-4-yl)-1H-pyrazol-4-ylamino)isonicotinic acid], the IC50 lay within 1000 to 10000 nM.

`COC(=O)c1ccncc1Nc1cn(C2CCN(C(C)C)CC2)nc1C` [Compound 101, methyl 3-((1-(1-isopropylpiperidin-4-yl)-3-methyl-1H-pyrazol-4-yl)amino)isonicotinate]: the IC50 was in the range of 10000 to 100000 nM.

For `Cc1nn(C2CCN(C(C)C)CC2)cc1Nc1cnccc1C(=O)O` [Compound 102, 3-((1-(1-isopropylpiperidin-4-yl)-3-methyl-1H-pyrazol-4-yl)amino)isonicotinic acid], the IC50 was 100 to 1000 nM.

For `COC(=O)c1ccncc1Nc1cnn(C2CCN(C(C)C)CC2)c1C` [Compound 103, methyl 3-((1-(1-isopropylpiperidin-4-yl)-5-methyl-1H-pyrazol-4-yl)amino)isonicotinate], the half-maximal inhibitory concentration (IC50) was in the range of 10000 to 100000 nM.

`Cc1c(Nc2cnccc2C(=O)O)cnn1C1CCN(C(C)C)CC1` [Compound 104]: the IC50 was 1000 to 10000 nM.

For the molecule `Cc1nn(CCN(C)C)cc1Nc1cnccc1C(=O)O` [Compound 107, 3-(1-(2-(dimethylamino)ethyl)-3-methyl-1H-pyrazol-4-ylamino) isonicotinic acid], the IC50 fell in the range of 100 to 1000 nM.

`Cc1nn(C2CCCN(C)CC2)cc1Nc1cnccc1C(=O)O` (centres unmarked) [Compound 111, 3-(3-methyl-1-(1-methylazepan-4-yl)-1H-pyrazol-4-ylamino) isonicotinic acid]: the IC50 lay within 10000 to 100000 nM.

Turning to `Cc1c(Nc2cnccc2C(=O)O)cnn1C1CCCN(C)CC1` (centres unmarked) [Compound 112, 3-((5-methyl-1-(1-methylazepan-4-yl)-1H-pyrazol-4-yl)amino)isonicotinic acid], the IC50 was 100 to 1000 nM.
